According to ChEMBL document CHEMBL1136825, “Synthesis and biological evaluation of 4-deacetoxy-1,7-dideoxy azetidine paclitaxel analogues” (2003):

How the values were obtained:
Format in all cases: functional, Homo sapiens
[1] = test system: A549; experiment: Concentration required for 50% inhibition of proliferation of lung cancer cell line, A549 with respect to paclitaxel was tested in vitro after 72 hr of incubation
[2] = test system: SK-OV-3; experiment: Concentration required for 50% inhibition of proliferation of ovarian cancer cell line, SKOV3 with respect to paclitexal was tested in vitro after 72 hr of incubation
[3] = test system: MCF7; experiment: Concentration required for 50% inhibition of proliferation of breast cancer cell line, MCF-7 with respect to paclitaxel was tested in vitro after 72 hr of incubation

With `CC(=O)O[C@H]1[C@@H]2[C@@H]3CN[C@@H]3CC[C@@]2(C)[C@@H](OC(C)=O)[C@H](OC(C)=O)C2=C(C)[C@@H](OC(=O)[C@H](O)[C@@H](NC(=O)c3ccccc3)c3ccccc3)C[C@@H]1C2(C)C` the Ratio [1] was 4.5, the Ratio [2] was 4.6 and the Ratio [3] was 4.9.
In the case of `CC(=O)O[C@H]1[C@@H]2[C@@H]3CN(C(=O)C(F)(F)F)[C@@H]3CC[C@@]2(C)[C@@H](OC(C)=O)[C@H](OC(C)=O)C2=C(C)[C@@H](OC(=O)[C@H](O)[C@@H](NC(=O)c3ccccc3)c3ccccc3)C[C@@H]1C2(C)C`, the Ratio [1] was 3.2, the Ratio [2] was 4.7 and the Ratio [3] was 3.8.
`CC(=O)O[C@H]1[C@@H]2[C@@H]3CN(C(C)=O)[C@@H]3CC[C@@]2(C)[C@@H](OC(C)=O)[C@H](OC(C)=O)C2=C(C)[C@@H](OC(=O)[C@H](O)[C@@H](NC(=O)c3ccccc3)c3ccccc3)C[C@@H]1C2(C)C` was tested, and the Ratio [1] was 2.9, the Ratio [2] was 5.8 and the Ratio [3] was 3.6.
With `COc1ccc(OC2O[C@@H](C(=O)O[C@H]3C[C@H]4[C@@H](OC(C)=O)[C@@H]5[C@@H]6CN[C@@H]6CC[C@@]5(C)[C@@H](OC(C)=O)[C@H](OC(C)=O)C(=C3C)C4(C)C)[C@H](c3ccccc3)N2C(=O)c2ccccc2)cc1` (stereo partly drawn) the Ratio [1] was 6.8, the Ratio [2] was 9.3 and the Ratio [3] was 8.6.
Compound `COc1ccc(OC2O[C@@H](C(=O)O[C@H]3C[C@H]4[C@@H](OC(C)=O)[C@@H]5[C@@H]6CN(C(C)=O)[C@@H]6CC[C@@]5(C)[C@@H](OC(C)=O)[C@H](OC(C)=O)C(=C3C)C4(C)C)[C@H](c3ccccc3)N2C(=O)c2ccccc2)cc1` (stereo partly drawn) has a Ratio [1] of 6.9, a Ratio [2] of 10.2 and a Ratio [3] of 9.3.
With `CC(=O)O[C@H]1C(=O)[C@@]2(C)[C@H]([C@H](OC(=O)c3ccccc3)[C@]3(O)C[C@H](OC(=O)[C@H](O)[C@@H](NC(=O)c4ccccc4)c4ccccc4)C(C)=C1C3(C)C)[C@]1(OC(C)=O)CO[C@@H]1C[C@@H]2O` [PACLITAXEL] the Ratio [1] was 1, the Ratio [2] was 1 and the Ratio [3] was 1.
